Reference: patent US20060167115A1, “Compositions for the preservation of timber” (priority 2003, published 2006)
“And” between values parts separate entries of the source, which are not always exact repeats. Equal entries are not always repeated. “Also recorded” adds a separate entry of the source.

Experiments:
Poria placenta [1] = assay: Biological efficacy test (ASTM D1413-76), soil block medium; type: cell-based
Experimental: (§1) The following fungi were tested: Neo-Lentinus lepideus (Brown rot fungus), Poria placenta (Brown rot fungus) and Gloeophyllum trabeum (Brown rot fungus). The preservative used was TBBA (waterborne). Seven concentrations of the preservative was used: 3.0%, 2.0%, 1.5%, 1.0%, 0.5%, 0.05% and 0.0% (w/w), i.e. the carrier solution in the absence of the preservative. All wood blocks were of Scots pine sapwood (Pinus sylvestris) with an approximate volume of 6.86 cm^3 (19 mm×19 mm×19 mm). All wood block specimens, where applicable, were vacuum impregnated with the preservative concentrations according to American standard ASTM D1413-76. • Treated test specimens: 3 (fungi)×7 (preservative concentrations)×1 (preservative)×8 (replicates)=168 test blocks • Untreated test specimens (control): 3 (fungi)×1 (preservative)×4 (replicates)=12 test blocks
(§2) After block treatments were completed, all the blocks were sterilized using ionizing radiation according to the conditions set out in American standard ASTM D1413-76. The incubation period for the test was 12 weeks.

Neo-Lentinus lepideus = assay: as above; type: cell-based
Experimental: as §1, §2

Gloeophyllum trabeum = assay: as above; type: cell-based
Experimental: as §1, §2

Coniophora puteana = assay: Biological screening test (modified EN 113), wood block weight loss; type: cell-based; conditions: 7 weeks exposure
Experimental: (§3) The following fungi were employed in this test: Coniophora puteana (Brown rot fungus) and Poria placenta (Brown rot fungus). The following preservative was tested: TBBA (in ethanol carrier). Five concentrations of the preservative were used: 2%, 1%, 0.1%, 0.05% and 0.01% (w/w).
(§4) All wood blocks employed in the examples to follow were of Scots pine sapwood (Pinus sylvestris) with a volume of 1 cm^3 (10 mm×10 mm×10 mm). Five replicate test specimens were used for each concentration of the preservative. Six virulence control specimens for each fungus were used to establish the wood decay capability of the fungi. Other test blocks were used to establish: the virulence of the test fungi; the absence of a preserving effect of the ethanol carrier; and weight changes of test blocks for reasons other than decay • Treated test specimens: 2 (fungi)×5 (preservative concentrations)×1 (preservative)×5 (replicates)=50 test blocks • Untreated test specimens (for exposure alongside treated blocks): one for each treated block=50 test blocks • Virulence control specimens: 2 (fungi)×6 (replicates)=12 test blocks • Ethanol carrier test specimens: 2 (fungi)×5 (replicates)=10 test blocks • Treated check test specimens: 1 (preservatives)×5 (concentrations)×5 (replicates)=25
(§5) All timber specimens, where applicable, were treated with preservative (vacuum impregnation) and sterilized (ionizing radiation) prior to test, in accordance with European Standard EN 113. The incubation period for the test (length of block exposure to the chosen basidiomycete fungi) was 48 days or just under 7 weeks.
(§6) Weight changes for particular waterlogged specimens, when these are clearly unrepresentative of a group, are not included in the mean figures presented.
(§7) Tables I and II show weight losses (% of initial dry weight) of TBBA treated and untreated control test specimens after 7 weeks exposure to Coniophora puteana and Poria placenta respectively.
(§8) In the tables, “retention” refers to the quantity of preservative that enters the wood per cubic meter of treated wood. It's value is determined by weighing the block of wood before and after it is treated with preservative, taking the difference between the two weights, and dividing the difference in weight by the volume of the block.

Poria placenta [2] = assay: as above; type: cell-based; conditions: 7 weeks exposure
Experimental: as §3, §4, §5, §6, §7, §8

wood decay = assay: Wood decay field stake test (modified AWPA E7-01), ground contact; conditions: TBBA added to ethanol, over all concentrations; groups of 10 stakes; seven months in ground
Experimental: The preservative value of TBBA in terms of preventing wood decay was examined by ground contact exposure of TBBA treated stakes at a test plot in Gainesville, Fla. The test detail was essentially based on the “STANDARD METHOD OF EVALUATING WOOD PRESERVATIVES BY FIELD TESTS WITH STAKES”, Standard E7-01, promulgated by the American Wood Preservers Association (AWPA).
All the test stakes were of southern pine sapwood and were vacuum impregnated with TBBA. The TBBA was dissolved in one of four solutions: ethanol, P9 type A oil, and in two micro-emulsions: • emulsion #1: TBBA 20.81%, Butyl Lactate 31.02%, NP-15 22.33% and water 25.83% • emulsion #2: TBBA 20.05%, Butyl Lactate 29.88%, NP-15 21.51% and water 28.55%
Each of the emulsions was diluted so that the corresponding concentration (w/v) of TBBA in all of the solutions was: 1.72%, 3.4%, 5.1%, 6.8% and 8.5%.
Two groups of control stakes were also installed in the test plot. One group was vacuum impregnated with pure ethanol. The second group was untreated.
The groups of stakes for each treatment were installed in the test plot, left for seven months, and evaluated according to the procedure set-out in AWPA Standard E7-01. […]

[3] = TBBA waterborne 0.05% w/w, retention 0.38 kg/m^3, 12 weeks
[4] = TBBA waterborne 0.5% w/w, retention 3.86 kg/m^3, 12 weeks
[5] = TBBA 0.01% w/w in ethanol carrier, retention 0.1 kg/m^3
[6] = TBBA 0.05% w/w in ethanol carrier, retention 0.4 kg/m^3
[7] = TBBA 0.1% w/w in ethanol carrier, retention 0.7 kg/m^3

## CC(C)(c1cc(Br)c(O)c(Br)c1)c1cc(Br)c(O)c(Br)c1 [TBBA, Tetrabromobisphenol A]
Poria placenta [1]; [3]
  Corrected mean loss in mass (%): 31.70 (9.88) %
Poria placenta [1]; [4]
  Corrected mean loss in mass (%): 30.27 (5.59) %
Poria placenta [1]; TBBA waterborne 1.0% w/w, retention 7.81 kg/m^3, 12 weeks
  Corrected mean loss in mass (%): 9.65 (18.03) %
Poria placenta [1]; TBBA waterborne 1.5% w/w, retention 11.57 kg/m^3, 12 weeks
  Corrected mean loss in mass (%): −0.12 (0.28) %
Poria placenta [1]; TBBA waterborne 2.0% w/w, retention 15.72 kg/m^3, 12 weeks
  Corrected mean loss in mass (%): −0.29 (0.26) %
Poria placenta [1]; TBBA waterborne 3.0% w/w, retention 23.22 kg/m^3, 12 weeks
  Corrected mean loss in mass (%): −0.71 (0.14) %
Neo-Lentinus lepideus; TBBA waterborne 0.05% w/w, retention 0.40 kg/m^3, 12 weeks
  Corrected mean loss in mass (%): 31.44 (5.65) %
Neo-Lentinus lepideus; [4]
  Corrected mean loss in mass (%): 4.55 (16.26) %
Neo-Lentinus lepideus; TBBA waterborne 1.0% w/w, retention 7.62 kg/m^3, 12 weeks
  Corrected mean loss in mass (%): 0.36 (0.19) %
Neo-Lentinus lepideus; TBBA waterborne 1.5% w/w, retention 11.61 kg/m^3, 12 weeks
  Corrected mean loss in mass (%): 0.04 (0.09) %
Neo-Lentinus lepideus; TBBA waterborne 2.0% w/w, retention 15.51 kg/m^3, 12 weeks
  Corrected mean loss in mass (%): 0.04 (0.20) %
Neo-Lentinus lepideus; TBBA waterborne 3.0% w/w, retention 23.79 kg/m^3, 12 weeks
  Corrected mean loss in mass (%): 0.11 (0.38) %
Gloeophyllum trabeum; [3]
  Corrected mean loss in mass (%): 42.71 (13.14) %
Gloeophyllum trabeum; TBBA waterborne 0.5% w/w, retention 3.87 kg/m^3, 12 weeks
  Corrected mean loss in mass (%): 45.02 (7.20) %
Gloeophyllum trabeum; TBBA waterborne 1.0% w/w, retention 7.73 kg/m^3, 12 weeks
  Corrected mean loss in mass (%): 5.52 (8.99) %
Gloeophyllum trabeum; TBBA waterborne 1.5% w/w, retention 11.75 kg/m^3, 12 weeks
  Corrected mean loss in mass (%): 2.232 (4.66) %
Gloeophyllum trabeum; TBBA waterborne 2.0% w/w, retention 15.62 kg/m^3, 12 weeks
  Corrected mean loss in mass (%): 0.29 (0.25) %
Gloeophyllum trabeum; TBBA waterborne 3.0% w/w, retention 23.02 kg/m^3, 12 weeks
  Corrected mean loss in mass (%): 0.13 (0.26) %
Coniophora puteana; [5]
  Corrected mean loss in mass (%): 39.71(2.2) (4) %
Coniophora puteana; [6]
  Corrected mean loss in mass (%): 40.63 (7.59) (5) %
Coniophora puteana; [7]
  Corrected mean loss in mass (%): 24.80 (—) (1) %
Coniophora puteana; TBBA 1% w/w in ethanol carrier, retention 6.7 kg/m^3
  Corrected mean loss in mass (%): 2.39% and 2.39 (1.56) (5) %
Coniophora puteana; TBBA 2% w/w in ethanol carrier, retention 14.1 kg/m^3
  Corrected mean loss in mass (%): no weight loss; also recorded: No mass loss
Poria placenta [2]; [5]
  Corrected mean loss in mass (%): 0.88 (0.29) (5) %
Poria placenta [2]; [6]
  Corrected mean loss in mass (%): 4.84 (0.32) (5) %
Poria placenta [2]; [7]
  Corrected mean loss in mass (%): 26.67% and 26.67(11.04) %
Poria placenta [2]; TBBA 1% w/w in ethanol carrier, retention 6.9 kg/m^3
  Corrected mean loss in mass (%): no weight loss; also recorded: No mass loss
Poria placenta [2]; TBBA 2% w/w in ethanol carrier, retention 14.2 kg/m^3
  Corrected mean loss in mass (%): no weight loss
Wood decay
  Instances of Grade No. 10 (count per group): 8-10
